# Data published in patent publication US10253002B2, “Compounds and methods of treating infections” (Neoculi Pty Ltd., priority 2013, dated 2019).
# Where “and” joins values, the source holds several entries; their conditions need not be identical. Equal entries are not always repeated.
# Experiments:
# [1] = tested on: S. aureus ATCC29213; assay: Broth microdilution MIC, Example 7 (NCL analogues), Table 42; format: cell-based, Staphylococcus aureus; conditions: S. aureus ATCC29213, 24 hours
# [2] = tested on: Pseudomonas aeruginosa; assay: Broth microdilution MIC, Example 7 (NCL812 and analogues); format: cell-based; conditions: Pseudomonas #008, 24 hours
# [3] = tested on: Escherichia coli; assay: as above; format: cell-based; conditions: E. coli ATCC25922, 24 hours
# [4] = tested on: E. faecalis #32; assay: Broth microdilution MIC, Example 7 (NCL analogues), Table 42; format: cell-based, Enterococcus faecalis; conditions: E. faecalis #32, 24 hours
# [5] = tested on: Staphylococcus pseudintermedius isolates (MSSP and MRSP); assay: Disk diffusion and Epsilometer susceptibility testing, Example 6; format: cell-based; conditions: 13 MRSP isolates
# [6] = tested on: S. pneumoniae isolates; assay: Disk diffusion susceptibility (CLSI/EUCAST), Example 5; format: cell-based, Streptococcus pneumoniae
# Description: Isolate susceptibility to 12 different antimicrobials (Table 16) was determined by CLSI and European Committee on Antimicrobial Susceptibility Testing (EUCAST) methods. Antimicrobials were selected based upon the CLSI and EUCAST guidelines. Standardised bacterial suspensions were spread onto MHSBA using a sterile cotton swab. Bacterial suspensions from of Streptococcus pneumoniae were standardised to an OD6O0 between 0.08 and 0.1 using a spectrophotometer and then diluted 1:20. Bacterial colonies were taken from an O/N horse blood agar plate. To ensure the purity of the 1:20 bacterial suspension, 50 μL was spread plated onto horse blood agar and incubated O/N at 37° C. with 5% CO2. The CFU was calculated and compared to the initial plate counts. Antibiotic disks (Purchased from Sigma Aldrich) were placed using a disk dispenser (Purchased from Oxoid) according to CLSI standards. MHSBA plates were incubated for 16 h-24 h at 37° C. in 5% CO2. Zones of complete inhibition were measured in triplicate to the nearest millimeter using a ruler on natural light-reflected growth, and the mode was represented as the diameter for each isolate. Pneumococcal isolates were categorised as sensitive, intermediate (I) or resistant (R) by CLSI standards and quality control (QC) ranges (Table 16).
# [7] = tested on: Staphylococcus aureus T3-129 / Staphylococcus spp. MK1; assay: Synergy studies, checkerboard method (FIC index); format: cell-based; conditions: for FICI: FIC index of antibiotic with NCL812; for Result (interaction with NCL812): antibiotic with NCL812
# [8] = tested on: S. aureus isolates (HA-MRSA, CA-MRSA, methicillin-susceptible staphylococci); assay: Kirby-Bauer disc diffusion resistotyping, Example 4; format: cell-based, Staphylococcus aureus; conditions: for Total isolates resistant (Kirby-Bauer disc diffusion): all isolates (n = 30)
# Description: Antibiotic-susceptibility profiling of the isolate collection was undertaken using Kirby-Bauer disc diffusion, as recommended by the Clinical and Laboratory Standards Institute (CLSI) on Mueller-Hinton agar. Isolates were grown overnight on SBA at 37° C. Colonies were suspended in physiological saline. Turbidity was adjusted to a 0.5 McFarland standard and suspensions were spread over the medium. Antibiotic discs according to Table 9 below were transferred onto the inoculated medium and analysed after 24 h incubation at 37° C.
# [9] = Methicillin-susceptible staphylococci (n = 10)
Compound,MIC (μg/ml) at 24 hours S. aureus ATCC29213 [1] [µg/mL],MIC (μg/ml) at 24 hours Pseudomonas #008 [2] [µg/mL],MIC (μg/ml) at 24 hours E. coli ATCC25922 [3] [µg/mL],MIC (μg/ml) at 24 hours E. faecalis #32 [4] [µg/mL],disk diffusion zone diameter ([6]; A66.1) [mm],disk diffusion zone diameter ([6]; D39) [mm],disk diffusion zone diameter ([6]; EF3030) [mm],disk diffusion zone diameter ([6]; L82016) [mm],disk diffusion zone diameter ([6]; P9) [mm],disk diffusion zone diameter ([6]; P21) [mm],disk diffusion zone diameter ([6]; TIGR4) [mm],disk diffusion zone diameter ([6]; WCH16) [mm],disk diffusion zone diameter ([6]; WCH43) [mm],disk diffusion zone diameter ([6]; WCH46) [mm],disk diffusion zone diameter ([6]; WCH57) [mm],disk diffusion zone diameter ([6]; WCH77) [mm],disk diffusion zone diameter ([6]; WCH86) [mm],disk diffusion zone diameter ([6]; WCH89) [mm],disk diffusion zone diameter ([6]; WCH92) [mm],disk diffusion zone diameter ([6]; WCH137) [mm],also measured
CC(Nc1cnc(NC(C)c2ccc(Cl)cc2)cn1)c1ccc(Cl)cc1 (centres unmarked) [NCL 186],>64,>64,>64,>64,–,–,–,–,–,–,–,–,–,–,–,–,–,–,–,–,–
Clc1ccc(/C=N/Nc2cc(N/N=C/c3ccc(Cl)cc3)ncn2)cc1 [NCL 181],>64,>64,>64,>64,–,–,–,–,–,–,–,–,–,–,–,–,–,–,–,–,–
O=C(N[C@H](CO)[C@H](O)c1ccc([N+](=O)[O-])cc1)C(Cl)Cl [Chloramphenicol],–,–,–,–,34,31,29,26,31,35,32,11,26,28,40,36,34,32,32,31,MRSP isolates susceptible [5]: 23%; disk diffusion susceptibility category ([6]; WCH16 (Table 18)): R; disk diffusion zone diameter ([6]; WCH158): 34 mm; disk diffusion zone diameter ([6]; WCH184): 29 mm; disk diffusion zone diameter ([6]; WCH211): 32 mm; disk diffusion zone diameter ([6]; WU2): 30 mm; FICI ([7]; S. aureus strain T3-29): 0.75 and 0.562; Antibiotic MIC Alone ([7]; S. aureus strain T3-29): 8 µg/mL and 4 µg/mL; Result (interaction with NCL812) ([7]; S. aureus strain T3-29): NE (No effect (NE) was defined as 0.5<FICI<4)
Gentamicin,–,–,–,–,–,–,–,–,–,–,–,–,–,–,–,–,–,–,–,–,"isolates resistant (Kirby-Bauer disc diffusion) ([8]; CA-MRSA (n = 10)): 0.00%; isolates resistant (Kirby-Bauer disc diffusion) ([8]; HA-MRSA (n = 10)): 20.00%; isolates resistant (Kirby-Bauer disc diffusion) [8, 9]: 0.00%; Total isolates resistant (Kirby-Bauer disc diffusion) [8]: 20.00%; FICI ([7]; Staphylococcus spp. Strain MK1): 0.625 and 0.75 and 0.515; Antibiotic MIC Alone ([7]; Staphylococcus spp. Strain MK1): 1 µg/mL and 0.5 µg/mL; Result (interaction with NCL812) ([7]; Staphylococcus spp. Strain MK1): NE (No effect (NE) was defined as 0.5<FICI<4)"
CN(C)[C@@H]1C(O)=C(C(N)=O)C(=O)[C@@]2(O)C(O)=C3C(=O)c4c(O)cccc4[C@@](C)(O)[C@H]3C[C@@H]12 [Tetracycline],–,–,–,–,32,35,34,32,32,38,35,18,31,30,48,39,31,35,29,37,"isolates resistant (Kirby-Bauer disc diffusion) ([8]; CA-MRSA (n = 10)): 30.00%; isolates resistant (Kirby-Bauer disc diffusion) ([8]; HA-MRSA (n = 10)): 30.00%; isolates resistant (Kirby-Bauer disc diffusion) [8, 9]: 0.00%; Total isolates resistant (Kirby-Bauer disc diffusion) [8]: 20.00%; disk diffusion susceptibility category ([6]; WCH16 (Table 19)): R; disk diffusion zone diameter ([6]; WCH158): 35 mm; disk diffusion zone diameter ([6]; WCH184): 11 mm; disk diffusion susceptibility category ([6]; WCH184 (Table 19)): R; disk diffusion zone diameter ([6]; WCH211): 36-37 mm; disk diffusion zone diameter ([6]; WU2): 34 mm; FICI ([7]; S. aureus strain T3-29): 0.625 and 0.75 and 0.62; Antibiotic MIC Alone ([7]; S. aureus strain T3-29): 0.25 µg/mL and 0.5 µg/mL; Result (interaction with NCL812) ([7]; S. aureus strain T3-29): NE (No effect (NE) was defined as 0.5<FICI<4)"
Cc1cc(NS(=O)(=O)c2ccc(N)cc2)no1 [Sulfamethoxazole],–,–,–,–,–,–,–,–,–,–,–,–,–,–,–,–,–,–,–,–,"FICI ([7]; Staphylococcus spp. Strain MK1): 0.75 and 1; FIC1 ([7]; Staphylococcus spp. Strain MK1, MIC of antibiotic in combination with NCL812/MIC of antibiotic alone): 0.5; Antibiotic MIC Alone ([7]; Staphylococcus spp. Strain MK1): 8 µg/mL; Antibiotic MIC With NCL812 ([7]; Staphylococcus spp. Strain MK1, antibiotic in combination with NCL812): 4 µg/mL; Result (interaction with NCL812) ([7]; Staphylococcus spp. Strain MK1): NE (No effect (NE) was defined as 0.5<FICI<4)"
